29 molecules from US9212182B2, “Bicyclic sulfonamide compounds as sodium channel inhibitors” (AMGEN INC., priority 2013, dated 2015) can be followed below.

As usually defined, the IC50 is the concentration that gives 50% inhibition.

Chain of Nav 1.7 (Q15858 whole entry): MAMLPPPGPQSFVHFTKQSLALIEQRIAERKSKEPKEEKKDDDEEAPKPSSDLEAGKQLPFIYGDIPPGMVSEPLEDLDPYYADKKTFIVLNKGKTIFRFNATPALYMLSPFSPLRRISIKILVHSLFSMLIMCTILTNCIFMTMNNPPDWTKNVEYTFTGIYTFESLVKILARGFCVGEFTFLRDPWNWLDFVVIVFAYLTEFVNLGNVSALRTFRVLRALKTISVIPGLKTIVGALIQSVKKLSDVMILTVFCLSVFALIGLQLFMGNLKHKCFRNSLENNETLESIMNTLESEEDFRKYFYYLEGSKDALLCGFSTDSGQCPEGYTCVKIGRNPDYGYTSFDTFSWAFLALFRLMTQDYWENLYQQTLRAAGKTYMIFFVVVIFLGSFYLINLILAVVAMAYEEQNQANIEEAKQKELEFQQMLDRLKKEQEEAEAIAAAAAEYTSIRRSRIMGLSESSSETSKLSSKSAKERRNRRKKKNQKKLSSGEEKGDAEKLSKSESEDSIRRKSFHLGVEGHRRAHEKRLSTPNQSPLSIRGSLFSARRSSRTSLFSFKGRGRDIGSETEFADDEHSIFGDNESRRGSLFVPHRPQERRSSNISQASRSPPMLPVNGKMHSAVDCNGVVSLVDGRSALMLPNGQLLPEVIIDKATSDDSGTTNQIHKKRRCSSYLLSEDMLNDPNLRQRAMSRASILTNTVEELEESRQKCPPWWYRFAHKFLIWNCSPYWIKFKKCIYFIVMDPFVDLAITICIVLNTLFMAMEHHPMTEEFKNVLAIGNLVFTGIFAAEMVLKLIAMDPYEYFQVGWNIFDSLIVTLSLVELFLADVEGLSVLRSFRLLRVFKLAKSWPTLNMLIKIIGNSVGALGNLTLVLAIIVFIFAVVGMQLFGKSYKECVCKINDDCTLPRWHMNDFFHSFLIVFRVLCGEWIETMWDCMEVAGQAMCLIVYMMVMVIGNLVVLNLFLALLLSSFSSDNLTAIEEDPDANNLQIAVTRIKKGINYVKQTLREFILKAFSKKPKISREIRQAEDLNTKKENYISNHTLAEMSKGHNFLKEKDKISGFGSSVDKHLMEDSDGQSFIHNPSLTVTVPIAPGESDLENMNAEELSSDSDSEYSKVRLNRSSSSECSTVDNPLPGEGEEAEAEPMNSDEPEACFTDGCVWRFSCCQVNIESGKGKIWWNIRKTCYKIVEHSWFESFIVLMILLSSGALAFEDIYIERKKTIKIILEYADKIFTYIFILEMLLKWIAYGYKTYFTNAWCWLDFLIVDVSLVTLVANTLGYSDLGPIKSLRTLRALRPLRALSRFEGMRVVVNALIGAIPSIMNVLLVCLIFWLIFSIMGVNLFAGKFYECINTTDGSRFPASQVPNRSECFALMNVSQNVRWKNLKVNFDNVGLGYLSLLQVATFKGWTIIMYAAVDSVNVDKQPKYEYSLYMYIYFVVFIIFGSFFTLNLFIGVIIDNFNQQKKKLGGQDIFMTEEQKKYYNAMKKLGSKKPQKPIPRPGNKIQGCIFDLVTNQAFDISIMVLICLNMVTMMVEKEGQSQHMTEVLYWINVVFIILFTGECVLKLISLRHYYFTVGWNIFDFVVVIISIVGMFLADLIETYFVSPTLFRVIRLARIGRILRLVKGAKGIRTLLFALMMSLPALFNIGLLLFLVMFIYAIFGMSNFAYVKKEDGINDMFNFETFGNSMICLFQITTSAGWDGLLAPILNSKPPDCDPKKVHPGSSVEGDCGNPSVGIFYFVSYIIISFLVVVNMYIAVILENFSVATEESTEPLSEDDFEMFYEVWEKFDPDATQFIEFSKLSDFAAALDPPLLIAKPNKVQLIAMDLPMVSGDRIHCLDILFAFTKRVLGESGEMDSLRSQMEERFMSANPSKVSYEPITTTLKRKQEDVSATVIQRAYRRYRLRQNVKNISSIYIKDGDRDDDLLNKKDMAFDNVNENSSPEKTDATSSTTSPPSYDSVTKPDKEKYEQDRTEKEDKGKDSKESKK

The first test addresses Nav 1.7 (Homo sapiens (Human), UniProt Q15858). Description: in-vitro Nav 1.7 PX (IC50). The format is cell-based.
Conditions: not given
For the molecule `COc1nc(C2CC2)c(Cl)cc1-n1c(=O)ccc2cc(S(=O)(=O)Nc3ccon3)ccc21` (atropisomer, axis not shown; (P)) [Example 1230, (P)-1-(5-chloro-6-cyclopropyl-2-methoxy-3-pyridinyl)-N-3-isoxazolyl-2-oxo-1,2-dihydro-6-quinolinesulfonamide], the midpoint of inhibition, the IC50, lay at 472 nM.
Regarding `COc1cc(C#CC2(O)CCCC2)c(F)cc1-n1c(=O)ccc2cc(S(=O)(=O)Nc3ccon3)ccc21` (atropisomer, axis not shown; (P)) [Example 1233, (P)-1-(5-fluoro-4-((1-hydroxycyclopentyl)ethynyl)-2-methoxyphenyl)-N-3-isoxazolyl-2-oxo-1,2-dihydro-6-quinolinesulfonamide], the IC50 came out at 631 nM.
On the same count and under the same terms, for `COc1cc(C[C@H]2CCOC2)c(F)cc1-n1c(=O)ccc2cc(S(=O)(=O)Nc3ccon3)ccc21` (atropisomer, axis not shown; (P)) [Example 1234, (P)-1-(5-fluoro-2-methoxy-4-((3S)-tetrahydro-3-furanylmethyl)phenyl)-N-3-isoxazolyl-2-oxo-1,2-dihydro-6-quinolinesulfonamide] the value was 1140 nM.
The molecule `COc1cc(C[C@@H]2CCOC2)c(F)cc1-n1c(=O)ccc2cc(S(=O)(=O)Nc3ccon3)ccc21` (atropisomer, axis not shown; (P)) [Example 1235, (P)-1-(5-fluoro-2-methoxy-4-((3R)-tetrahydro-3-furanylmethyl)phenyl)-N-3-isoxazolyl-2-oxo-1,2-dihydro-6-quinolinesulfonamide] returned an IC50 of 2130 nM.
`COc1cc(C#CC2(F)CCCC2)c(F)cc1-n1c(=O)ccc2cc(S(=O)(=O)Nc3cccnn3)ccc21` (atropisomer, axis not shown; (P)) [Example 1238, (P)-1-(5-fluoro-4-((1-fluorocyclopentyl)ethynyl)-2-methoxyphenyl)-2-oxo-N-3-pyridazinyl-1,2-dihydro-6-quinolinesulfonamide] displayed an IC50 of 94 nM.
Turning to `COc1cc(C#CC2CCCC2)ccc1-n1c(=O)ccc2cc(S(=O)(=O)Nc3cccnn3)ccc21` (atropisomer, axis not shown; (P)) [Example 1239, (P)-1-(4-(cyclopentylethynyl)-2-methoxyphenyl)-2-oxo-N-3-pyridazinyl-1,2-dihydro-6-quinolinesulfonamide], the half-inhibitory concentration (IC50) was found to be 113 nM.
On the same count and under the same terms, for `COc1nc(C#CC2CCCC2)c(Cl)cc1-n1c(=O)ccc2cc(S(=O)(=O)Nc3cccnn3)ccc21` (atropisomer, axis not shown; (P)) [Example 1240, (P)-1-(5-chloro-6-(cyclopentylethynyl)-2-methoxy-3-pyridinyl)-2-oxo-N-3-pyridazinyl-1,2-dihydro-6-quinolinesulfonamide] the value was 124 nM.
`COc1cc(-c2cccc(C(F)(F)F)c2)ccc1-n1c(=O)ccc2cc(S(=O)(=O)Nc3cccc(F)n3)ccc21` (atropisomer, axis not shown; (P)) [Example 1242, (P)—N-(6-fluoro-2-pyridinyl)-1-(3-methoxy-3′-(trifluoromethyl)-4-biphenylyl)-2-oxo-1,2-dihydro-6-quinolinesulfonamide] showed a concentration for half-maximal inhibition (IC50) of 79 nM.
In turn, `O=c1ccc2cc(S(=O)(=O)Nc3ccon3)ccc2n1-c1ccc(-c2cccc(F)c2)cc1CC(O)CO` (racemic) [Example 327, 1-(3-((2R)-2,3-dihydroxypropyl)-3′-fluoro-4-biphenylyl)-N-3-isoxazolyl-2-oxo-1,2-dihydro-6-quinolinesulfonamide, 1-(3-((2S)-2,3-dihydroxypropyl)-3′-fluoro-4-biphenylyl)-N-3-isoxazolyl-2-oxo-1,2-dihydro-6-quinolinesulfonamide] showed a concentration for half-maximal inhibition (IC50) of 5570 nM.
Take `CO[C@H]1CCCC[C@@H]1n1c(=O)ccc2cc(S(=O)(=O)Nc3ncns3)ccc21` (racemic) [Example 1145, (±)-1-((1S,2S)-2-methoxycyclohexyl)-2-oxo-N-1,2,4-thiadiazol-5-yl-1,2-dihydro-6-quinolinesulfonamide]: the midpoint of inhibition, the IC50, lay at 471 nM.
`COc1ccc(-c2cccc(C(F)(F)F)c2)cc1-n1c(=O)ccc2cc(S(=O)(=O)Nc3ccon3)ccc21` [Example 312, N-3-isoxazolyl-1-(4-methoxy-3′-(trifluoromethyl)-3-biphenylyl)-2-oxo-1,2-dihydro-6-quinolinesulfonamide] gave a half-inhibitory concentration (IC50) of 22 nM.
Still for that read-out and setting: under `O=c1ccc2cc(S(=O)(=O)Nc3ccon3)ccc2n1-c1ccc(C(F)(F)F)cc1-c1cn[nH]c1` [Example 346, P-1-(2-(1H-pyrazol-4-yl)-4-(trifluoromethyl)phenyl)-N-(isoxazol-3-yl)-2-oxo-1,2-dihydroquinoline-6-sulfonamide] stands 648 nM; under `O=c1ccc2cc(S(=O)(=O)Nc3ccon3)ccc2n1-c1ccc(C(F)(F)F)cc1-c1cn[nH]c1` [Example 347, M-1-(2-(1H-pyrazol-4-yl)-4-(trifluoromethyl)phenyl)-N-(isoxazol-3-yl)-2-oxo-1,2-dihydroquinoline-6-sulfonamide], 6600 nM; under `COc1cc(-c2cccc(F)c2)c(Cl)cc1-n1c(=O)cc(C)c2cc(S(=O)(=O)Nc3ccon3)ccc21` [Example 348, P-1-(2-chloro-3′-fluoro-5-methoxy-[1,1′-biphenyl]-4-yl)-N-(isoxazol-3-yl)-4-methyl-2-oxo-1,2-dihydroquinoline-6-sulfonamide], 159 nM.
In turn, `COc1cc(-c2cccc(F)c2)c(Cl)cc1-n1c(=O)cc(C)c2cc(S(=O)(=O)Nc3ccon3)ccc21` [Example 349, M-1-(2-chloro-3′-fluoro-5-methoxy-[1,1′-biphenyl]-4-yl)-N-(isoxazol-3-yl)-4-methyl-2-oxo-1,2-dihydroquinoline-6-sulfonamide] yielded an IC50 of 10600 nM.
The molecule `COc1cc(-c2cccc(Cl)c2)ccc1-n1c(=O)ccc2cc(S(=O)(=O)Nc3ccon3)ccc21` [Example 350, P-1-(3′-chloro-3-methoxy-[1,1′-biphenyl]-4-yl)-N-(isoxazol-3-yl)-2-oxo-1,2-dihydroquinoline-6-sulfonamide] came in with an IC50 of 26 nM.
As to `COc1cc(-c2cccc(Cl)c2)ccc1-n1c(=O)ccc2cc(S(=O)(=O)Nc3ccon3)ccc21` [Example 351, M-1-(3′-chloro-3-methoxy-[1,1′-biphenyl]-4-yl)-N-(isoxazol-3-yl)-2-oxo-1,2-dihydroquinoline-6-sulfonamide], the IC50 was determined as 5520 nM.
Molecule `COc1ccc(-c2ccnn2C)cc1-n1c(=O)ccc2cc(S(=O)(=O)Nc3ccon3)ccc21` [Example 385, N-3-isoxazolyl-1-(2-methoxy-5-(1-methyl-1H-pyrazol-5-yl)phenyl)-2-oxo-1,2-dihydro-6-quinolinesulfonamide] gave an IC50 of 6230 nM.
`N#CCOc1cc(-c2cccc(F)c2)c(F)cc1-n1c(=O)ccc2cc(S(=O)(=O)Nc3ccon3)ccc21` [Example 387, 1-(5-(cyanomethoxy)-2,3′-difluoro-[1,1′-biphenyl]-4-yl)-N-(isoxazol-3-yl)-2-oxo-1,2-dihydroquinoline-6-sulfonamide] registered an IC50 of 89 nM.

The test is the same for the next values; noted with them: in-vitro Nav 1.7 PX data.
In turn, `CCOc1cccc(-c2ccc(-n3c(=O)ccc4cc(S(=O)(=O)Nc5ccon5)ccc43)c(OC)c2)c1` [631/779, 1-(3′-ethoxy-3-methoxy-4-biphenylyl)-N-3-isoxazolyl-2-oxo-1,2-dihydro-6-quinolinesulfonamide] gave a half-inhibitory concentration (IC50) of 24 nM.
In the case of `COc1cc(-c2ccc(Cl)cc2)c(F)cc1-n1c(=O)ccc2cc(S(=O)(=O)Nc3ccon3)ccc21` [634/675, 1-(4′-chloro-2-fluoro-5-methoxy-4-biphenylyl)-N-3-isoxazolyl-2-oxo-1,2-dihydro-6-quinolinesulfonamide], the IC50 was 13 nM.
The same measure, in the same setting: under `COc1nc(OCC2CC2)c(Cl)cc1-n1c(=O)ccc2cc(S(=O)(=O)Nc3ccon3)ccc21` [638/819, 1-(5-chloro-6-(cyclopropylmethoxy)-2-methoxy-3-pyridinyl)-N-3-isoxazolyl-2-oxo-1,2-dihydro-6-quinolinesulfonamide] stands 825 nM; under `COc1nc(C2CC2)c(Cl)cc1-n1c(=O)ccc2cc(S(=O)(=O)Nc3ccon3)ccc21` [640/830, 1-(5-chloro-6-cyclopropyl-2-methoxy-3-pyridinyl)-N-3-isoxazolyl-2-oxo-1,2-dihydro-6-quinolinesulfonamide], 38 nM.

Still in this test, the particulars now being: in-vitro PatchXpress (PX).
`COc1nc(-c2cccc(F)c2)c(Cl)cc1-n1c(=O)ccc2cc(S(=O)(=O)Nc3ccon3)ccc21` [Example 341, 1-(5-chloro-6-(3-fluorophenyl)-2-methoxypyridin-3-yl)-N-(isoxazol-3-yl)-2-oxo-1,2-dihydroquinoline-6-sulfonamide]: it took 168 nM to reach half-maximal inhibition (IC50).
As to `COc1nc(N2CC(F)(F)C2)c(Cl)cc1-n1c(=O)ccc2cc(S(=O)(=O)Nc3ccon3)ccc21` [Example 342, 1-(5-chloro-6-(3,3-difluoroazetidin-1-yl)-2-methoxypyridin-3-yl)-N-(isoxazol-3-yl)-2-oxo-1,2-dihydroquinoline-6-sulfonamide], it took 1640 nM to reach half-maximal inhibition (IC50).
In the case of `COc1cc(-c2cccnc2)c(F)cc1-n1c(=O)ccc2cc(S(=O)(=O)Nc3ccon3)ccc21` [Example 404, 1-(5-fluoro-2-methoxy-4-(3-pyridinyl)phenyl)-N-3-isoxazolyl-2-oxo-1,2-dihydro-6-quinolinesulfonamide], the IC50 was 4300 nM.
`COc1cc(-c2cnn(C)c2)c(F)cc1-n1c(=O)ccc2cc(S(=O)(=O)Nc3ccon3)ccc21` [Example 405, 1-(5-fluoro-2-methoxy-4-(1-methyl-1H-pyrazol-4-yl)phenyl)-N-3-isoxazolyl-2-oxo-1,2-dihydro-6-quinolinesulfonamide] yielded an IC50 of 14600 nM.
The same measure, in the same setting: under `COc1cc(N2CC(F)(F)C2)c(F)cc1-n1c(=O)ccc2cc(S(=O)(=O)Nc3ccon3)ccc21` [Example 406, 1-(4-(3,3-difluoro-1-azetidinyl)-5-fluoro-2-methoxyphenyl)-N-3-isoxazolyl-2-oxo-1,2-dihydro-6-quinolinesulfonamide] stands 1000 nM.
`COc1cc(-c2cncc(Cl)c2)c(F)cc1-n1c(=O)ccc2cc(S(=O)(=O)Nc3ccon3)ccc21` [Example 407, 1-(4-(5-chloro-3-pyridinyl)-5-fluoro-2-methoxyphenyl)-N-3-isoxazolyl-2-oxo-1,2-dihydro-6-quinolinesulfonamide]: it took 158 nM to reach half-maximal inhibition (IC50).
